These results are taken from patent US9623063B2, “Extracts from Ajuga reptans cell lines, their preparation and use” (I.R.B. ISTITUTO DI RICERCHE BIOTECNOLOGICHE S.r.l., priority 2005, dated 2017).

Read-outs that look alike come from different tables or passages of the source.

Assay [1] concerns Candida albicans ATCC 2091. The experiment in a line: Multiple dilution assay, growth in culture broth. The format is cell-based. The following applies: for T0 (CFU/ml) / T7d (CFU/ml) / T14d (CFU/ml) / T21d (CFU/ml) / T28d (CFU/ml): 30° C.; for T7d (CFU/ml): 7 days; for T14d (CFU/ml): 14 days; for T21d (CFU/ml): 21 days; for T28d (CFU/ml): 28 days. The protocol: (§1) To the purpose of detecting any antimicrobial activity of the Ajuga reptans extract and the individual phenylpropanoid isoteupoloside (FPD) and teupolioside (FPA), an assay has been prepared, generally known as multiple dilution assay, with the following microbial strains: Pseudomonas aeruginosa ATCC 9027; Candida albicans ATCC 2091. The phenylpropanoids FPD, FPA and the Extract 2 of Ajuga reptans were assayed at the concentrations of 0.5 mg/ml, 2 mg/ml and 5 mg/ml. The microbial strains for the test were inoculated in culture broths (in Triptone soy broth medium) containing the substances to be assayed at the concentrations described above. In parallel with these tests, culture broths containing the microbial strain alone have been prepared (controls). The culture-broths have been incubated at 30° C. for a period of 28 days. […] A certain number of serial dilutions have been prepared for each sample in order to determine the microbial load of each culture-broth. Each dilution has been assayed in triplicate on solid medium. Then number of CFUs reported in the table is the mean of the counts performed on the triplicate assays.

The subject of assay [2] is Pseudomonas aeruginosa ATCC 9027. As to the kind of experiment: Multiple dilution assay, growth in culture broth. The following applies: for T0 (CFU/ml) / T7d (CFU/ml) / T14d (CFU/ml) / T21d (CFU/ml) / T28d (CFU/ml): 30° C.; for T7d (CFU/ml): 7 days; for T14d (CFU/ml): 14 days; for T21d (CFU/ml): 21 days; for T28d (CFU/ml): 28 days. The assay is classed as cell-based. The protocol:
as §1

The next assay relates to tyrosinase. The experiment in a line: Tyrosinase inhibition, oxidation of L-tyrosine to L-DOPA. The format is biochemical. The following applies: 250 μg/ml. The source says:
The enzyme tyrosinase catalyses the reactions leading to melanin biosynthesis from tyrosine. […] Substances inhibiting tyrosinase activity produce a clearing/bleaching effect on the skin, since they block melanin synthesis. The method used to determine the inhibition of tyrosinase activity in the oxidation reaction of L-tyrosine to L-DOPA is that described in Kim et al. […] Biol. Pharm. […] The method applied for determination of the inhibition of tyrosinase activity in the conversion of L-DOPA to DOPAquinone is that described in Masamoto et al. (Mushroom tyrosinase inhibitory activity of esculetin isolated from seeds of Euphorbia lathyris L. Biosci. Biotechnol. Biochem., 67(3), 631-634, 2003).

Assay [3] is described as follows: Metal chelation, spectrophotometric (Fe3+). The format is physicochemical. From the text: The chelating activities of Ajuga reptans extracts in relation to Fe^2+, Fe^3+, Cu^2+ and Ni^2+ metal ions has been determined by means of spectrophotometric measurements using a Shimadzu 1770 UV spectrophotometer. The activities of chelating agents depends on the association constant (equilibrium) of their reactions with the metals according to the following reaction:
[formula] wherein Keq is the equilibrium constant equal to the ratio of concentrations at equilibrium of a complex and a product of equilibrium concentrations of metal ions and a chelator:
The method used for determining chelating activities is well documented in the literature (Korkina L G, Afarras'er I B. Antioxidant and chelating properties of flavonoids. Adv. Pharmacol., 1997, 38:151-63). The results are expressed as Keq (M^−1) calculated for a pure phenylpropanoid. This way the chelating activity against ferrous (Fe II), ferric (Fe III), copper (Cu II) and nickel ions has been calculated.

Assay [4] in a line: Peroxynitrite scavenging (SIN-1, PTIO spin trap, ESR). The assay is classed as biochemical. The following applies: means of 6 independent assays. From the text: (§2) The superoxide anion has been measured by a chemiluminescent assay based on the hypoxanthine (HPX)/xanthine oxidase (XOD) reaction using the Lumimax Superoxide Anion Detection Kit (Stratagene, La Jolla, Calif., USA) and following the manufacturer's instructions. Hydroxyl radical scavenger activity has been measured by means of the Fenton reaction for the production of hydroxyl radicals and chemiluminescent dosage (using a Victor^3 chemiluminometer, Wallac, Finland) with luminol. Peroxynitrite ions have been determined by means of dosage with a spontaneous generator of peroxynitrites (3-morpholinosidnonimine hydrochloride; SIN-1) and a stable reagent for the nitroxyl ions (2-(4-carboxyphenyl)-4,4,5,5-tetramethylimidazoline-1-oxyl-3-oxide potassium salt PTIO spin trap) then dosed by means of electron spin resonance (ESR) using a Nippon Denshi JES-FR30. Lipid peroxidation has been generated using Fe^2+ induced-oxygen reactive species, and detected using thiobarbituric acid in accordance with Buege, J A & Aust, S D: Microsomal lipid peroxidation (Methods Enzymol.
(§3) The results are expressed as the concentration inhibiting 50% of activity (IC50), means of 6 independent assays.

For another assay, the system named is 3T3 fibroblasts. As to the kind of experiment: BSO-induced oxidative death of 3T3 fibroblasts (MTT). The assay is classed as cell-based, BALB/c mouse. The following applies: 20 μM; BSO 200 μM, 24 hours.
Assay [5] in a line: Superoxide anion chemiluminescent assay (hypoxanthine/xanthine oxidase, Lumimax kit). The format is biochemical. The following applies: means of 6 independent assays.
Description: as §2, §3

The next assay relates to A549 cells (ATCC-CCL185). As to the kind of experiment: BSO-induced oxidative stress, ROS by DCF fluorimetry in A549 cells. The following applies: 20 μM; with BSO; control without BSO = 100. The format is cell-based, human. The protocol: 10×10^5 A549 cells (ATCC-CCL185) have been seeded into wells with 3 ml of DMEM/F12K HAM medium (Sigma-Aldrich) with 10% FCS and incubated at 37° C. in a 5% CO2, water vapour saturated atmosphere. After 24 hours the culture medium is replaced by medium supplemented with BSO, which is left in contact with the cells for 20 hours. The medium is once again replaced with medium containing BSO in the presence or absence of the test compound. After 4 hours, quantitative measurement of the ROSs (hydroxyl radicals) is performed by washing the cells with phosphate buffer and then incubating them with 30 μM DCF-DA in buffer solution. At the end of a 15 minute incubation, excess DCF-DA is removed from the cells by washing, prior to measuring the fluorescence emitted.
Antioxidant activity measurements are performed using a (Hitachi F3010) spectrophotometer with excitation at 488 nm and measuring emission at 525 nm, and values are expressed in pmoles, by extrapolation from the calibration curve constructed using known quantities of DCF, and in relation to total cellular protein. Values are thus expressed in % ages with respect to the ROS content of the cells not subjected to treatment with BSO (control) to which are assigned a value of 100.
The Extracts 1 and 2, Teupolioside and Ascorbic Acid were solubilized in phosphate buffer 10 mM at pH 7.4, whereas trolox was solubilized in 0.1% of dimethylsulphoxide and culture medium.

For `CC1OC(OC2C(O)C(COC(=O)C=Cc3ccc(O)c(O)c3)OC(OCCc3ccc(O)c(O)c3)C2O)C(OC2OC(CO)C(O)C(O)C2O)C(O)C1O` (stereo not shown) [Isoteupolioside, isoteupolioside], in assay [1] (0.5 mg/ml), the “T0 (CFU/ml)” value is 9.7 × 10^5 CFU/ml, the “T7d (CFU/ml)” value is recorded as 1.7 × 10^6 CFU/ml, the “T14d (CFU/ml)” value was 5.8 × 10^5 CFU/ml and the “T21d (CFU/ml)” value is reported as 7.3 × 10^7 CFU/ml. Besides, in assay [1] (0.5 mg/ml), the “T28d (CFU/ml)” value is on record as 6.5 × 10^7 CFU/ml. Further, in assay [1] (2 mg/ml), the “T0 (CFU/ml)” value is 9.1 × 10^5 CFU/ml, the “T7d (CFU/ml)” value was 1.1 × 10^6 CFU/ml, the “T14d (CFU/ml)” value is 2.3 × 10^6 CFU/ml and the “T21d (CFU/ml)” value is 1.2 × 10^5 CFU/ml. In assay [1] (2 mg/ml), the “T28d (CFU/ml)” value was 3.8 × 10^3 CFU/ml. In assay [1] (5 mg/ml), the “Inhibiting action on the growth of Candida albicans ATCC 2091, in words” value is “significant inhibiting action”; the “T0 (CFU/ml)” value was 8.1 × 10^5 CFU/ml; the “T7d (CFU/ml)” value is 3.1 × 10^5 CFU/ml; the “T14d (CFU/ml)” value is on record as 8.5 × 10^3 CFU/ml. In addition, the “T21d (CFU/ml)” value in assay [1] (5 mg/ml) was 5 × 10^1 CFU/ml. Moreover, in assay [2] (0.5 mg/ml), the “T0 (CFU/ml)” value was 9.6 × 10^5 CFU/ml, the “T7d (CFU/ml)” value is on record as 1.2 × 10^6 CFU/ml, the “T14d (CFU/ml)” value is on record as 2.1 × 10^7 CFU/ml and the “T21d (CFU/ml)” value is 2.4 × 10^4 CFU/ml. In addition, the “T28d (CFU/ml)” value in assay [2] (0.5 mg/ml) is reported as 9.8 × 10^3 CFU/ml. For the same compound, in assay [2] (2 mg/ml), the “T0 (CFU/ml)” value is recorded as 5.9 × 10^5 CFU/ml, the “T7d (CFU/ml)” value is 1.1 × 10^6 CFU/ml, the “T14d (CFU/ml)” value is recorded as 1.9 × 10^6 CFU/ml and the “T21d (CFU/ml)” value is recorded as 9.2 × 10^3 CFU/ml. Also, in assay [2] (2 mg/ml), the “T28d (CFU/ml)” value is recorded as 9.8 × 10^3 CFU/ml. In assay [2] (5 mg/ml), the “Inhibiting action on the growth of Pseudomonas aeruginosa ATCC 9027, in words” value is “significant inhibiting action”; the “T0 (CFU/ml)” value is listed as 3.6 × 10^5 CFU/ml; the “T7d (CFU/ml)” value was 9.8 × 10^5 CFU/ml; the “T14d (CFU/ml)” value is listed as 1.1 × 10^5 CFU/ml. In assay [2] (5 mg/ml), the “T21d (CFU/ml)” value is 2.5 × 10^3 CFU/ml and the “T28d (CFU/ml)” value is 9 × 10^1 CFU/ml. For the same compound, the “Test L-tyrosine-DOPA inhibitory activity (%)” value with tyrosinase amounted to 30.9%. Further, the “Fe^3+ (Keq, M^−1)” value in assay [3] was 420000 ± 110000 M⁻¹.

Take `C[C@@H]1O[C@@H](O[C@@H]2[C@@H](O)[C@H](OCCc3ccc(O)c(O)c3)O[C@H](CO)[C@H]2OC(=O)/C=C/c2ccc(O)c(O)c2)[C@H](O[C@@H]2O[C@H](CO)[C@H](O)[C@H](O)[C@H]2O)[C@H](O)[C@H]1O` [Teupolioside, teupolioside]: the “Anti-microbial activity on Candida albicans ATCC 2091, comparison in words” value in assay [1] is listed as “activity similar to isoteupolioside”. The “Inhibiting action on the growth of Candida albicans ATCC 2091, in words” value in assay [1] (5 mg/ml) is recorded as “significant inhibiting action”. Moreover, in assay [2], the “Anti-microbial activity on Pseudomonas aeruginosa ATCC 9027, comparison in words” value is reported as “activity similar to isoteupolioside”. For the same compound, the “Inhibiting action on the growth of Pseudomonas aeruginosa ATCC 9027, in words” value in assay [2] (5 mg/ml) is given as “significant inhibiting action”. Further, in assay [4], the “Peroxynitrite radical (IC50)” value was 1.8 µg/mL. In the assay on 3T3 fibroblasts, the “% survived cells” value is listed as 75.5%. For the same compound, in the assay with tyrosinase, the “Test L-tyrosine-DOPA inhibitory activity (%)” value was determined as 29.6%. The “Superoxide radical (IC50)” value in assay [5] is 1 µg/mL. Also, the “% ROS in picomoles” value in the assay on A549 cells (ATCC-CCL185) turned out to be 135 ± 7 %. The “Fe^3+ (Keq, M^−1)” value in assay [3] (calculated for a pure phenylpropanoid) is 430000 ± 90000 M⁻¹.
